pIC50: −log10 of the molar value.
The compounds below were run against Aldo-keto reductase family 1 member B1 (Homo sapiens, UniProt P15121) (assay: Inhibition of aldose reductase (unknown origin)).

Point of comparison: COC(=O)CN1C(=O)S/C(=C/c2ccc(O)cc2)C1=O, pIC50 4.41. Against it:
- O=C1NC(=O)/C(=C/c2cccc3ccccc23)S1 — 0.64 log units higher, 5.05
- O=C(O)CN1C(=O)S/C(=C\c2cccc(Oc3ccccc3)c2)C1=O — 0.56 log units higher, 4.97
- O=C(O)CN1C(=O)S/C(=C\c2ccc(Oc3ccccc3)cc2)C1=O — 2.36 log units higher, 6.77
- O=C(O)CN1C(=O)S/C(=C\c2ccc(OCc3ccccc3)cc2)C1=O — 0.56 log units higher, 4.97
- O=C1NC(=O)/C(=C/c2cccc(Oc3ccccc3)c2)S1 — 2.14 log units higher, 6.55
- COC(=O)CN1C(=O)S/C(=C/c2cccc(Oc3ccccc3)c2)C1=O — 2.17 log units higher, 6.58
- O=C(O)CN1C(=O)S/C(=C/c2ccc(-c3ccccc3)cc2)C1=O — 1.77 log units higher, 6.18
- O=C(O)CN1C(=O)S/C(=C/c2cccc3ccccc23)C1=O — 0.80 log units higher, 5.21
- O=C1NC(=O)/C(=C\c2cccc(O)c2)S1 — 2.41 log units higher, 6.82
- O=C(O)CN1C(=O)S/C(=C/c2cccc(O)c2)C1=O — 0.97 log units higher, 5.38
- O=C(O)CN1C(=O)S/C(=C/c2ccc(O)cc2)C1=O — 1.90 log units higher, 6.31
- O=C(O)/C=C/CN1C(=O)S/C(=C/c2ccc(O)cc2)C1=O — 1.51 log units higher, 5.92
- Nc1cccc(/C=C2/SC(=O)NC2=O)c1 — 0.80 log units higher, 5.21
- COC(=O)CN1C(=O)S/C(=C/c2cccc(N)c2)C1=O — 1.47 log units higher, 5.88
- O=C(O)CN1C(=O)S/C(=C/c2cccc([N+](=O)[O-])c2)C1=O — 2.48 log units higher, 6.89
- O=C(O)CN1C(=O)S/C(=C/c2ccc([N+](=O)[O-])cc2)C1=O — 1.68 log units higher, 6.09
- O=C1NC(=O)/C(=C/c2ccc(O)cc2)S1 — 0.29 log units higher, 4.70
